# From publication PMC2672171, “In Vivo Delta Opioid Receptor Internalization Controls Behavioral Effects of Agonists” (PLoS ONE, 2009)
# What was measured:
# [1] = biological target: T1, DOR-eGFP (delta opioid receptor-eGFP) (Mus musculus, UniProt P32300); assay: [3H]naltrindole competition binding, whole brain membranes; conditions: 1 nM [3H]naltrindole, 1 h, 25 °C; read-out: Affinity (Competition Binding) / Ki (nM) / Concentration
# T1 construct: gene Oprd1; Full-length mouse delta receptor with C-terminal eGFP, knocked in at the native gene (exon 3, 5' of the stop codon); whole brain membranes of knock-in mice
# T1 sequence (P32300 whole entry): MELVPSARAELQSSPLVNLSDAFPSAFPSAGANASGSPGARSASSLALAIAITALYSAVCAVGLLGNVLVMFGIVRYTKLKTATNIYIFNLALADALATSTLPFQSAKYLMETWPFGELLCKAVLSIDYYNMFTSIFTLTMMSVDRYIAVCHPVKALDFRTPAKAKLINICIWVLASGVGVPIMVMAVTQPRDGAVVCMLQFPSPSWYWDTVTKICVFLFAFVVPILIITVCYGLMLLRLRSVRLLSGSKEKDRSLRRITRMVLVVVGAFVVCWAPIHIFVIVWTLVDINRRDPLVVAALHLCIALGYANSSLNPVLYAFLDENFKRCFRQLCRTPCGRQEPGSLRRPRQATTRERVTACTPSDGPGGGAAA
# Excerpt: [3H]naltrindole competition binding, whole brain membranes on DOR-eGFP (delta opioid receptor-eGFP)
# [2] = biological target: T1, DOR-eGFP (delta opioid receptor-eGFP); assay: […]GTPgammaS binding, whole brain membranes; type: biochemical; conditions: agonist; 30 µM GDP, 0.1 nM [35S]GTPgammaS, 3 mM MgCl2, 100 mM NaCl, pH 7.4, 1 h, 25 °C; read-out: G protein coupling ([^35S]GTPγS binding) / EC50 (nM) / Striatum / E1/2 (min)
structure (smiles),measurement,setting,value
"CCN(CC)C(=O)c1ccc(C(=C2CCNCC2)c2ccccc2)cc1 [ARM390, N,N-diethyl-4-(phenyl-piperidin-4-ylidenemethyl)-benzamide]",Ki,[1],2.3 ± 0.3 nM
same,EC50,[2],169 ± 9.5 nM
